Key:
[1] = biological target: 5-hydroxytryptamine receptor 6 (Homo sapiens) (UniProt P50406); assay: Binding affinity to human recombinant 5HT6 receptor expressed in CHO cells co-expressing pCRE-Luc gene assessed as modulation of serotonin-induced intracellular cAMP level after 4 hrs by luciferase based luminescence assay; assay type: cell-based
[2] = biological target: Sodium-dependent dopamine transporter (Homo sapiens) (UniProt Q01959); assay: Inhibition of DAT at 0.5 uM
[3] = biological target: T1, 5-hydroxytryptamine receptor 2C (Homo sapiens) (UniProt P28335); assay: Inhibition of 5HT2C receptor at 0.5 uM
T1 sequence (whole entry): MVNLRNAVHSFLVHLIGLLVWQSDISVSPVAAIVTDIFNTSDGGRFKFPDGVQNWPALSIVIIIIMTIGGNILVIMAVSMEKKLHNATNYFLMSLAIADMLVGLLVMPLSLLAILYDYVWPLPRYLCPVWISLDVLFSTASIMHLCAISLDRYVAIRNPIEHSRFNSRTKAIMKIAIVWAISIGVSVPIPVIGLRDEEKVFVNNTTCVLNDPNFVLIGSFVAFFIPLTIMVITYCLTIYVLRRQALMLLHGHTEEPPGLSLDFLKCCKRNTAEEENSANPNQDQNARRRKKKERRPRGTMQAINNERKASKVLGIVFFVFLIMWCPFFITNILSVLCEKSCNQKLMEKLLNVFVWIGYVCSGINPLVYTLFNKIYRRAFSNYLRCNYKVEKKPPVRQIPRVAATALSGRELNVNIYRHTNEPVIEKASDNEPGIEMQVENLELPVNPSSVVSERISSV

[4] = biological target: Sodium-dependent serotonin transporter (Homo sapiens) (UniProt P31645); assay: Inhibition of SERT at 0.5 uM
[5] = biological target: D(2) dopamine receptor (Homo sapiens) (UniProt P14416); assay: Inhibition of dopamine D2 receptor at 0.5 uM
[6] = biological target: 5-hydroxytryptamine receptor 7 (Rattus norvegicus) (UniProt P32305); assay: Binding affinity to rat 5HT7 receptor expressed in CHO cells co-expressing pCRE-Luc gene assessed as modulation of serotonin-induced intracellular cAMP level at 0.5 uM after 5 hrs by luciferase based luminescence assay; assay type: cell-based
[7] = biological target: 5-hydroxytryptamine receptor 2A (Homo sapiens) (UniProt P28223); assay: Inhibition of 5HT2A receptor at 0.5 uM
[8] = biological target: T2, Alpha-1B adrenergic receptor (Homo sapiens) (UniProt P35368); assay: Inhibition of adrenergic alpha1b receptor at 0.5 uM
T2 sequence (whole entry): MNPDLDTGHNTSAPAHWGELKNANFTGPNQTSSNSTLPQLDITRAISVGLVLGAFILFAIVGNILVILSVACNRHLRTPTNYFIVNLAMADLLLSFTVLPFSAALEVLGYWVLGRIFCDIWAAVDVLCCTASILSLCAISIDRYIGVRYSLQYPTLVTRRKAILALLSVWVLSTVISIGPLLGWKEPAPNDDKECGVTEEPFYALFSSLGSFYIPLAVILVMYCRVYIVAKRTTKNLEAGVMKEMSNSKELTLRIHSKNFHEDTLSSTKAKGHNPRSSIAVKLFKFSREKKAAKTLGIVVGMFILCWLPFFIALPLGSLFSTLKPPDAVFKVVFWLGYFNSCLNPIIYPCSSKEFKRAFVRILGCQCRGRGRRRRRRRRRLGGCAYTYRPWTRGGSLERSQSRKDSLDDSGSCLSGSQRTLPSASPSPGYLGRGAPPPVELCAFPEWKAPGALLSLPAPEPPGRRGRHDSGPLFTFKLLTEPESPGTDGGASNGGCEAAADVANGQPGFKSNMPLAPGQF

[9] = biological target: 5-hydroxytryptamine receptor 4 (Homo sapiens) (UniProt Q13639); assay: Binding affinity to human recombinant 5HT4 receptor expressed in CHO cells co-expressing pCRE-Luc gene assessed as modulation of serotonin-induced intracellular cAMP level at 0.5 uM after 5 hrs by luciferase based luminescence assay; assay type: cell-based
[10] = Metabolic stability in rat liver microsomes assessed as drug metabolized level after 30 mins; assay type: ADME, Microsome; conditions: read-out: Activity
[11] = biological target: Sodium-dependent noradrenaline transporter (Homo sapiens) (UniProt P23975); assay: Inhibition of NET at 0.5 uM
[12] = biological target: Histamine H1 receptor (Homo sapiens) (UniProt P35367); assay: Inhibition of histamine H1 receptor at 0.5 uM
[13] = Metabolic stability in human liver microsomes assessed as drug metabolized level after 30 mins; assay type: ADME, Microsome; conditions: read-out: Activity
[14] = biological target: T3, Muscarinic acetylcholine receptor M1 (Homo sapiens) (UniProt P11229); assay: Binding affinity to human muscarinic M1 receptor expressed in CHO cells co-expressing pCRE-Luc gene assessed as modulation of acetylcholine-induced intracellular cAMP level at 0.5 uM after 5 hrs by luciferase based luminescence assay; assay type: cell-based
T3 sequence (whole entry): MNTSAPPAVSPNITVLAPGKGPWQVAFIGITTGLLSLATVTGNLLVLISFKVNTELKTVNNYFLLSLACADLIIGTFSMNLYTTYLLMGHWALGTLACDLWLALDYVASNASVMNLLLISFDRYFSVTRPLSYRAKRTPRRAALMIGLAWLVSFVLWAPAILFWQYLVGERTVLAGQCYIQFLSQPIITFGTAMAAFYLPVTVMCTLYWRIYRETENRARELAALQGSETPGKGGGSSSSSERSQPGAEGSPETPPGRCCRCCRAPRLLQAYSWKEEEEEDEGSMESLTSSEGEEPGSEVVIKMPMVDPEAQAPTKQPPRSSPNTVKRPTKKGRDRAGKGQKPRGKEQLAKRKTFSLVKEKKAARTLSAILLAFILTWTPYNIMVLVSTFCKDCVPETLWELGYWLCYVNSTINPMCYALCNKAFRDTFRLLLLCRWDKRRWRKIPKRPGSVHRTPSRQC

Sequence of Sodium-dependent noradrenaline transporter (Homo sapiens) (P23975 whole entry): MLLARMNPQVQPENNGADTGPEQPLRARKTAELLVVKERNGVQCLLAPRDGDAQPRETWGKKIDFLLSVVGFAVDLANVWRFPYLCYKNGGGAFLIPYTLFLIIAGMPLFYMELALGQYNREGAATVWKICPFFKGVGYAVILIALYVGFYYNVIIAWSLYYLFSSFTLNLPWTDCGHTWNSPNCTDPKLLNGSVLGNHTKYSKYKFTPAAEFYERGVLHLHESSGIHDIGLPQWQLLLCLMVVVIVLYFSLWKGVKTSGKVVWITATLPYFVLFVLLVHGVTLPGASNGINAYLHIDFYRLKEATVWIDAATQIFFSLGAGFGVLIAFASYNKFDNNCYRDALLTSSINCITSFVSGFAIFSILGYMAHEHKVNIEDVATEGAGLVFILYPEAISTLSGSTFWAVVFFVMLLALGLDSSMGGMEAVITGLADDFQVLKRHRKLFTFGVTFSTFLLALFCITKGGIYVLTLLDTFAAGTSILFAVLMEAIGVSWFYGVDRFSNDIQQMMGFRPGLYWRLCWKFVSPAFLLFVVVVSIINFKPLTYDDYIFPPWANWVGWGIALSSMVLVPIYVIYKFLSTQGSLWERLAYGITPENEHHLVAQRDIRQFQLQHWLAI
Sequence of 5-hydroxytryptamine receptor 7 (Rattus norvegicus) (P32305 whole entry): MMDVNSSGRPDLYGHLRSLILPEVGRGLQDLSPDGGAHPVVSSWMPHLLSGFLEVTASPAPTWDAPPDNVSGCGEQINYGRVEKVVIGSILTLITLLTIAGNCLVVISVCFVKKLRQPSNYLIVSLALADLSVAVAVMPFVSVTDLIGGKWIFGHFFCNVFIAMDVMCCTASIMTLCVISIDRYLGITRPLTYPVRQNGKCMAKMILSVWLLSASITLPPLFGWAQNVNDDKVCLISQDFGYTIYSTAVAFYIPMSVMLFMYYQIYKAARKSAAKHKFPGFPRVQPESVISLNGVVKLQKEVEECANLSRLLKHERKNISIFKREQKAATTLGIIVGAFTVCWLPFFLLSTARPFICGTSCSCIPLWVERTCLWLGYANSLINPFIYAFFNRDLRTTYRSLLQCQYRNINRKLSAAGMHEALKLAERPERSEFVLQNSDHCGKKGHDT
Sequence of 5-hydroxytryptamine receptor 4 (Homo sapiens) (Q13639 whole entry): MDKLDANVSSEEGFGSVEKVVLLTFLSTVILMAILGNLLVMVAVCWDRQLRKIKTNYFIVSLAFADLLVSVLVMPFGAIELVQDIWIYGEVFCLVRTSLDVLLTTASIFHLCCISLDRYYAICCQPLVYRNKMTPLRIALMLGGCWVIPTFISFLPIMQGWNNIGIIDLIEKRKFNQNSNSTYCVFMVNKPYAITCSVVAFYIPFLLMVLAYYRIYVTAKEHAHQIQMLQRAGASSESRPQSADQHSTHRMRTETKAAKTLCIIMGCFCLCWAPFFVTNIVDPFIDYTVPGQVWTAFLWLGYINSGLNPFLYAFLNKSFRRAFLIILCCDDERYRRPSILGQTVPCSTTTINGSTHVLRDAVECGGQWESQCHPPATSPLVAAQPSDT
Sequence of Sodium-dependent serotonin transporter (Homo sapiens) (P31645 whole entry, looked up): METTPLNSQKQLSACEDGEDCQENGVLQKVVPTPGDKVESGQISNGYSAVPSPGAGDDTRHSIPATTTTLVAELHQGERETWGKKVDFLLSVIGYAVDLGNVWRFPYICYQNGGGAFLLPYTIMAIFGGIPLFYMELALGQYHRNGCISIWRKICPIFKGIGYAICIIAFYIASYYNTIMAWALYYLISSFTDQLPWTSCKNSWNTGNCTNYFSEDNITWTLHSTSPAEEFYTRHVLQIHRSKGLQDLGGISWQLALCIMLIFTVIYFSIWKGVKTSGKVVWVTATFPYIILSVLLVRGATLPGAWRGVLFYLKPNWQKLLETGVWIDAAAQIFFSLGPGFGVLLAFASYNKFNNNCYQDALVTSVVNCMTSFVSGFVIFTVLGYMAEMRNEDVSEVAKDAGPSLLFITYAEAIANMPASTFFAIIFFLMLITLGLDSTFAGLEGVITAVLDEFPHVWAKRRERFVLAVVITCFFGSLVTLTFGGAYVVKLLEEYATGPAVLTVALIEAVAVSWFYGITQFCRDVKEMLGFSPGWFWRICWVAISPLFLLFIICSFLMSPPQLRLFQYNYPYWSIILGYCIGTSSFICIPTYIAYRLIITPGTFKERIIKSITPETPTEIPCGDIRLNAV
Sequence of 5-hydroxytryptamine receptor 6 (Homo sapiens) (P50406 whole entry): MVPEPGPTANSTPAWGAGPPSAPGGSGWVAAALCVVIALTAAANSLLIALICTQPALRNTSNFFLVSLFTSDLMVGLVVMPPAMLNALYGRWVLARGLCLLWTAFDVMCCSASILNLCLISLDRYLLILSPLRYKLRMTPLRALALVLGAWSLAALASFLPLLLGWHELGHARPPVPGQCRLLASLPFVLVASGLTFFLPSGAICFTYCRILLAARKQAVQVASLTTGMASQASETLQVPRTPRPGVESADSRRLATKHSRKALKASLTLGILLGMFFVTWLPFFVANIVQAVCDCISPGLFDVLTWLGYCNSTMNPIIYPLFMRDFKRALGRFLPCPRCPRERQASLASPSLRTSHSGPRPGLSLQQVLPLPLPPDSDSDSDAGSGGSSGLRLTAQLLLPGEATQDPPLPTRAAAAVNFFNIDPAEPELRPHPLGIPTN
Sequence of D(2) dopamine receptor (Homo sapiens) (P14416 whole entry): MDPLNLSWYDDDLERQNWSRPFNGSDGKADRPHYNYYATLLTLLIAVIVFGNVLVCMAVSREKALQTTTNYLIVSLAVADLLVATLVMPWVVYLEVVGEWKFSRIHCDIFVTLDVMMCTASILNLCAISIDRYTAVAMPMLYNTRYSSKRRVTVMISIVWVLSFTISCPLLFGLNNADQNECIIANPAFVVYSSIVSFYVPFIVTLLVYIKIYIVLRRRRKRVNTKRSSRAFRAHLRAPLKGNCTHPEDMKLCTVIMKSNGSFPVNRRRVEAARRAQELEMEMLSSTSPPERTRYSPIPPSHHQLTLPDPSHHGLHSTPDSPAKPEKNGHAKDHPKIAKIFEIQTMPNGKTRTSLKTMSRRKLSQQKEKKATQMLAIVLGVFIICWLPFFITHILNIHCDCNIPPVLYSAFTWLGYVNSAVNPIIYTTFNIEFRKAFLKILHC
Sequence of Sodium-dependent dopamine transporter (Homo sapiens) (Q01959 whole entry): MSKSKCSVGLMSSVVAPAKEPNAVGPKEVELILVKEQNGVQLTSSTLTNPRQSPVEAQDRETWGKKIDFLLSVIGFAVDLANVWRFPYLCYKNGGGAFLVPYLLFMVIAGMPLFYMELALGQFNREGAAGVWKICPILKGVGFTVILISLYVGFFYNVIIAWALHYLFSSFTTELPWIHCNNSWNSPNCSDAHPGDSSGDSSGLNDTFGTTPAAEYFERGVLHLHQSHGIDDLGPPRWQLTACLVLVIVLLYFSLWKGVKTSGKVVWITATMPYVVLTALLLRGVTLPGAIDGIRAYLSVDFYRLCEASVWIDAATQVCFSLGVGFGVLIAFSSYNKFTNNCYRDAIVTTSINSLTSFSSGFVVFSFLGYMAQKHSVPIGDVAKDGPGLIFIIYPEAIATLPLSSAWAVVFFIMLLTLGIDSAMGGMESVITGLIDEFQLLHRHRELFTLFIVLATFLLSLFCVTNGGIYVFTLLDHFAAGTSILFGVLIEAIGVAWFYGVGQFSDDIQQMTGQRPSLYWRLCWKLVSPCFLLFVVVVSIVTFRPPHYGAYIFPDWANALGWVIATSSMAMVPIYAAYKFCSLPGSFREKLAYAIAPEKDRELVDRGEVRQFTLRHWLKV
Sequence of Histamine H1 receptor (Homo sapiens) (P35367 whole entry): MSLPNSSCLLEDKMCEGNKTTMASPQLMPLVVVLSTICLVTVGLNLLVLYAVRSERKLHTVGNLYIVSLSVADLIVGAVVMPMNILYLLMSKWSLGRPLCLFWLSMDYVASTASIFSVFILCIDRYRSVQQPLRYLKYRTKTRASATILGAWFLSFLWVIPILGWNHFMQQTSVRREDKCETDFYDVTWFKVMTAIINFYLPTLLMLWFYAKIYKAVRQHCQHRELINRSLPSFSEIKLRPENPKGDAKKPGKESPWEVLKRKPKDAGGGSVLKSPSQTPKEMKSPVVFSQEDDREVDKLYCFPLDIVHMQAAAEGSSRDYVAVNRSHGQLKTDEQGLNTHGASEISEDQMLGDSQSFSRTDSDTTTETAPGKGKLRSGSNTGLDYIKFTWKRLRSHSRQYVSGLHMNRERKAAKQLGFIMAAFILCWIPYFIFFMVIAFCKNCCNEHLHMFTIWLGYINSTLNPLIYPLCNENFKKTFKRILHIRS
Sequence of 5-hydroxytryptamine receptor 2A (Homo sapiens) (P28223 whole entry): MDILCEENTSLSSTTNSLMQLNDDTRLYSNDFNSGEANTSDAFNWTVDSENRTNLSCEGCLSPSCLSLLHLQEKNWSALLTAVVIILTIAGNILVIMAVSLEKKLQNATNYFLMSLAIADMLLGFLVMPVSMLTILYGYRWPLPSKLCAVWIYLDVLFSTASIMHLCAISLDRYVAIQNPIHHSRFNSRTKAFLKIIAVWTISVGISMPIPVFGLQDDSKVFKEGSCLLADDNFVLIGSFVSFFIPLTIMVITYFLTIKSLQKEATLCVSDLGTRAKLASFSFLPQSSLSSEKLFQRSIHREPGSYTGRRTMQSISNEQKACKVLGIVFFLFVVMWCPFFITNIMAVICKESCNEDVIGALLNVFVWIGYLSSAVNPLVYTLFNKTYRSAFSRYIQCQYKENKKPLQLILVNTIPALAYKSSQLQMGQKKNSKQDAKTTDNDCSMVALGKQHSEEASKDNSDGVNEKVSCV

SMILES: COc1ccc2c(c1)c(C1CCN(C)C1)cn2S(=O)(=O)c1ccccc1Br (racemic)
- Kb [1]: 0.13 nM

SMILES: CCN1CC(Cl)=C(c2cn(S(=O)(=O)c3ccc(Br)cc3)c3ccccc23)C1
- Kb [1]: 3.9 nM

SMILES: COc1ccc2c(c1)c(CCN(C)C)cn2S(=O)(=O)c1ccccc1
- Kb [1]: 5.8 nM

SMILES: COc1ccc2c(c1)c(C1=C(Cl)CN(C)C1)cn2S(=O)(=O)c1cccc(Cl)c1
- Kb [1]: 0.84 nM

SMILES: COc1ccc2c(c1)c(C1=C(Cl)CN(C)C1)cn2S(=O)(=O)c1ccc(Br)cc1
- Kb [1]: 1.78 nM

SMILES: CCN1CC(Cl)=C(c2cn(S(=O)(=O)c3cccc(Cl)c3)c3ccccc23)C1
- Kb [1]: 12.5 nM

SMILES: CCN1CC(Cl)=C(c2cn(S(=O)(=O)c3ccc(F)cc3)c3ccc(OC)cc23)C1
- Kb [1]: 8.7 nM

SMILES: CCOc1ccc2c(c1)c(C1=C(Cl)CN(CC)C1)cn2S(=O)(=O)c1ccccc1Br
- Kb [1]: 0.45 nM

SMILES: CN1CC(Cl)=C(c2cn(S(=O)(=O)c3ccccc3)c3ccc(F)cc23)C1
- Kb [1]: 0.1 nM

SMILES: COc1ccc2c(c1)c(C1CCN(C)C1)cn2S(=O)(=O)c1ccccc1 (racemic)
- Kb [1]: 0.89 nM

SMILES: CCN1CCC(c2cn(S(=O)(=O)c3ccccc3Br)c3ccc(OC)cc23)C1 (racemic)
- Kb [1]: 1.3 nM

SMILES: CCN1CC(Cl)=C(c2cn(S(=O)(=O)c3ccccc3)c3ccc(OC)cc23)C1
- Kb [1]: 0.7 nM

SMILES: COc1ccc2c(c1)c(C1=C(Cl)CN(C)C1)cn2S(=O)(=O)c1ccc(F)cc1
- Kb [1]: 0.63 nM

SMILES: CCN1CC(Cl)=C(c2cn(S(=O)(=O)c3ccc(OC)cc3)c3ccc(OC)cc23)C1
- Kb [1]: 14.5 nM

SMILES: COc1ccc(S(=O)(=O)n2cc(C3=C(Cl)CN(C)C3)c3ccccc32)cc1
- Kb [1]: 10 nM

SMILES: CC(C)Oc1ccc2c(c1)c(C1=C(Cl)CN(C)C1)cn2S(=O)(=O)c1ccccc1
- Kb [1]: 0.7 nM

SMILES: CC(C)Oc1ccc2c(c1)c(C1=C(Cl)CN(C)C1)cn2S(=O)(=O)c1ccc(F)cc1
- Kb [1]: 7.27 nM

SMILES: COc1ccc2c(c1)c(C1=C(Cl)CN(C)C1)cn2S(=O)(=O)c1ccccc1
- inhibition [2]: < 50%
- inhibition [3]: < 50%
- inhibition [4]: < 50%
- inhibition [5]: < 50%
- inhibition [6]: < 50%
- inhibition [7]: < 50%
- inhibition [8]: < 50%
- inhibition [9]: < 50%
- metabolised at 0.5 h [10]: 96%
- Kb [1]: 0.1 nM
- inhibition [11]: < 50%
- inhibition [12]: < 50%
- metabolised at 0.5 h [13]: 97%
- inhibition [14]: < 50%

SMILES: COc1ccc2c(c1)c(C1CCN(C)C1)cn2S(=O)(=O)c1ccc(C(C)C)cc1 (racemic)
- Kb [1]: 0.1 nM

SMILES: CCN1CC(Cl)=C(c2cn(S(=O)(=O)c3cccc(Cl)c3)c3ccc(OC)cc23)C1
- Kb [1]: 2.4 nM

SMILES: CCN1CC(Cl)=C(c2cn(S(=O)(=O)c3ccccc3Br)c3ccc(OC)cc23)C1
- Kb [1]: 6.15 nM

SMILES: COc1ccc2c(c1)c(C1=C(Cl)CN(C)C1)cn2S(=O)(=O)c1ccc(C(C)C)cc1
- Kb [1]: 0.25 nM

SMILES: CCOc1ccc2c(c1)c(C1=C(Cl)CN(C)C1)cn2S(=O)(=O)c1ccccc1
- Kb [1]: 1 nM

SMILES: CN1CCC(c2cn(S(=O)(=O)c3ccccc3)c3ccccc23)C1 (racemic)
- Kb [1]: 1.52 nM

SMILES: CCOc1ccc2c(c1)c(C1=C(Cl)CN(C)C1)cn2S(=O)(=O)c1ccc(Br)cc1
- Kb [1]: 4.45 nM

SMILES: CCN1CC(Cl)=C(c2cn(S(=O)(=O)c3cccc(Cl)c3)c3ccc(F)cc23)C1
- Kb [1]: 6.15 nM

SMILES: CCN1CCC(c2cn(S(=O)(=O)c3ccccc3Br)c3ccccc23)C1 (racemic)
- Kb [1]: 0.1 nM

SMILES: CN1CC(Cl)=C(c2cn(S(=O)(=O)c3ccc(Br)cc3)c3ccccc23)C1
- inhibition [2]: < 50%
- inhibition [3]: < 50%
- inhibition [4]: < 50%
- inhibition [5]: < 50%
- inhibition [6]: < 50%
- inhibition [7]: < 50%
- inhibition [8]: < 50%
- inhibition [9]: < 50%
- Kb [1]: 0.35 nM
- inhibition [11]: < 50%
- inhibition [12]: < 50%
- inhibition [14]: < 50%

SMILES: CC(C)Oc1ccc2c(c1)c(C1CCN(C)C1)cn2S(=O)(=O)c1ccccc1Br (racemic)
- Kb [1]: 4.15 nM

SMILES: CN1CC(Cl)=C(c2cn(S(=O)(=O)c3ccc(F)cc3)c3ccccc23)C1
- inhibition [2]: < 50%
- inhibition [3]: < 50%
- inhibition [4]: < 50%
- inhibition [5]: < 50%
- inhibition [6]: < 50%
- inhibition [7]: < 50%
- inhibition [8]: < 50%
- inhibition [9]: < 50%
- Kb [1]: 0.6 nM
- inhibition [11]: < 50%
- inhibition [12]: < 50%
- inhibition [14]: < 50%

SMILES: CCN1CC(Cl)=C(c2cn(S(=O)(=O)c3ccc(Br)cc3)c3ccc(OC)cc23)C1
- Kb [1]: 4.75 nM

SMILES: CCOc1ccc2c(c1)c(C1CCN(C)C1)cn2S(=O)(=O)c1ccccc1Br (racemic)
- Kb [1]: 0.1 nM

SMILES: CN1CCC(c2cn(S(=O)(=O)c3ccc(F)cc3)c3ccccc23)C1 (racemic)
- Kb [1]: 1 nM

SMILES: CCOc1ccc2c(c1)c(C1=C(Cl)CN(C)C1)cn2S(=O)(=O)c1ccccc1Br
- Kb [1]: 0.4 nM

SMILES: CN1CCC(c2cn(S(=O)(=O)c3ccccc3Br)c3ccccc23)C1 (racemic)
- Kb [1]: 0.13 nM

SMILES: COc1ccc2c(c1)c(C1=C(Cl)CN(C)C1)cn2S(=O)(=O)c1cc(Cl)c(Cl)cc1Cl
- Kb [1]: 18.4 nM

SMILES: CN1CC(Cl)=C(c2cn(S(=O)(=O)c3ccccc3Br)c3ccc(F)cc23)C1
- Kb [1]: 0.25 nM

SMILES: COc1ccc2c(c1)c(C1=C(Cl)CN(C)C1)cn2S(=O)(=O)c1ccccc1Br
- inhibition [2]: < 50%
- inhibition [3]: < 50%
- inhibition [4]: < 50%
- inhibition [5]: < 50%
- inhibition [6]: < 50%
- inhibition [7]: < 50%
- inhibition [8]: < 50%
- inhibition [9]: < 50%
- Kb [1]: 0.3 nM
- inhibition [11]: < 50%
- inhibition [12]: < 50%
- inhibition [14]: < 50%

SMILES: CCOc1ccc2c(c1)c(C1=C(Cl)CN(C)C1)cn2S(=O)(=O)c1ccc(F)cc1
- Kb [1]: 6.16 nM

SMILES: CCN1CC(Cl)=C(c2cn(S(=O)(=O)c3ccc(F)cc3)c3ccccc23)C1
- Kb [1]: 5.8 nM

SMILES: CCN1CC(Cl)=C(c2cn(S(=O)(=O)c3ccccc3Br)c3ccccc23)C1
- Kb [1]: 1.1 nM

SMILES: COc1ccc(S(=O)(=O)n2cc(C3=C(Cl)CN(C)C3)c3cc(OC)ccc32)cc1
- inhibition [2]: < 50%
- inhibition [3]: < 50%
- inhibition [4]: < 50%
- inhibition [5]: < 50%
- inhibition [6]: < 50%
- inhibition [7]: < 50%
- inhibition [8]: < 50%
- inhibition [9]: < 50%
- Kb [1]: 1.65 nM
- inhibition [11]: < 50%
- inhibition [12]: < 50%
- inhibition [14]: < 50%

Source: ChEMBL document CHEMBL1806380, “Rigidized 1-aryl sulfonyl tryptamines: synthesis and pharmacological evaluation as 5-HT6 receptor ligands” (Bioorg Med Chem Lett, 2011)
